Laboratory results taken from US6197768A, “Pyridocarbazole derivatives having cgmp-pde inhibitory activity” (Mochida Pharmaceutical Co., Ltd., priority 1996, dated 2001).
Counter-ions that a name gives are not always drawn.

What was measured:
coronary artery diameter = experiment: Coronary Artery Diameter Increasing Action in anesthetized dogs; format: in vivo, adult mongrel dogs; settings: for Coronary artery diameter (relative to nitroglycerin): maximal change as ratio to 10 μg/kg nitroglycerin
Description: (§1) Adult mongrel dogs were thoracotomized under anesthesia with α-chloralose and the circumflex branch of the left coronary artery was […]; a pair of ultrasonic crystals were attached to the tunica extima for measuring the diameter of the coronary artery whereas an electromagnetic flow probe was attached to the peripheral side to measure the coronary blood flow. Nitroglycerin, dipyridamole and each test compound were administered intravenously for comparison. Each test compound was dissolved in dimethylformamide and diluted sequentially with polyethylene glycol 200 and water to give respective proportions of 20, 50 and 30% (v/v). The results are shown in Table 3, in which the maximal changes in the diameter of the coronary artery and the coronary blood flow are expressed in terms of the ratio to the respective changes caused by 10 μg/kg of nitroglycerin.

coronary blood flow = experiment: Coronary blood flow in anesthetized dogs; format: in vivo, adult mongrel dogs; settings: maximal change as ratio to 10 μg/kg nitroglycerin
Description: as §1

PDE type V = target: T1, PDE type V (Canis lupus familiaris, UniProt O77746); experiment: PDE Inhibiting Activity, type V (cGMP-PDE); format: biochemical, dog (canine aorta); settings: PDE type V from canine aorta, 1 μM substrate, pH 7.5; read-out: Inhibition Activity IC50, Type V
T1 construct: PDE was purified from the aorta in a dog; from tissue; host or cells: dog aorta
Description: (§2) On the basis of the method of Lugnier et al. (Biochem. Pharmacol., 35, 1743-1751, 1986), PDE was purified from the aorta in a dog. The canine aorta was minced and homogenized with a Waring Blender and a glass homogenizer in six volumes of a Tris-HCl buffer solution (pH 7.5, 20 mM) containing 2 mM magnesium acetate, 5 mM ethylenediaminetetraacetic acid (EDTA), 100 μg/mL of phenylmethylsulforyl fluoride and 15 mM 2-mercaptoethanol (2-ME), and centrifuged at 1200 xg for 30 min. The supernatant was separated and salted out with ammonium sulfate which was added to 45% saturation. The resulting precipitated fraction was resuspended in a Tris-HCl buffer solution (pH 7.5, 20 mM) containing 2 mM magnesium acetate and 1 mM 2-ME, dialyzed overnight and applied to a DEAE-trisacryl column (DEAE […] M:IBF). By elution with a sodium chloride gradient (0-0.4 M), PDE types V and III were separated from the other isozymes. The supernatant fraction of 45% saturated ammonium sulfate was further mixed with ammonium sulfate to 65% saturation and salted out. The resulting precipitated fraction was similarly applied to the DEAE-trisacryl column and eluted by a sodium chloride gradient (0-0.4 M) so as to separate PDE type I.
The thus obtained PDE types V, III and I were measured for their activity in accordance with the method of Thompson et al. (Adv. Cyclic Nucleotide Res., 10, 69-72, 1979) and the method of Wells et al. (Biochim. Biophys. Acta, 384, 430-443, 1975). Specifically, a purified PDE sample was added to 50 mM Tris-HCl buffer solution (pH 7.5) containing 1 μM of substrate cGMP or cAMP (containing tritium-labelled cGMP or cAMP), 1 mM EGTA and 2 mM magnesium acetate. […] The activity of each test compound was determined as a percentage of the DPE activity measured when it was added as a dimethyl sulfoxide solution (DMSO) and its IC50 (50% inhibition concentration) was calculated by the probit method. […]

PDE type III = target: T2, PDE type III (Canis lupus familiaris, UniProt A0A8I3NYE0); experiment: PDE Inhibiting Activity, type III; format: biochemical, dog (canine aorta); settings: PDE type III from canine aorta, 1 μM substrate, pH 7.5; read-out: Inhibition Activity IC50, Type III
T2 construct: PDE was purified from the aorta in a dog; from tissue; host or cells: dog aorta
T2 sequence (A0A8I3NYE0 1-1135): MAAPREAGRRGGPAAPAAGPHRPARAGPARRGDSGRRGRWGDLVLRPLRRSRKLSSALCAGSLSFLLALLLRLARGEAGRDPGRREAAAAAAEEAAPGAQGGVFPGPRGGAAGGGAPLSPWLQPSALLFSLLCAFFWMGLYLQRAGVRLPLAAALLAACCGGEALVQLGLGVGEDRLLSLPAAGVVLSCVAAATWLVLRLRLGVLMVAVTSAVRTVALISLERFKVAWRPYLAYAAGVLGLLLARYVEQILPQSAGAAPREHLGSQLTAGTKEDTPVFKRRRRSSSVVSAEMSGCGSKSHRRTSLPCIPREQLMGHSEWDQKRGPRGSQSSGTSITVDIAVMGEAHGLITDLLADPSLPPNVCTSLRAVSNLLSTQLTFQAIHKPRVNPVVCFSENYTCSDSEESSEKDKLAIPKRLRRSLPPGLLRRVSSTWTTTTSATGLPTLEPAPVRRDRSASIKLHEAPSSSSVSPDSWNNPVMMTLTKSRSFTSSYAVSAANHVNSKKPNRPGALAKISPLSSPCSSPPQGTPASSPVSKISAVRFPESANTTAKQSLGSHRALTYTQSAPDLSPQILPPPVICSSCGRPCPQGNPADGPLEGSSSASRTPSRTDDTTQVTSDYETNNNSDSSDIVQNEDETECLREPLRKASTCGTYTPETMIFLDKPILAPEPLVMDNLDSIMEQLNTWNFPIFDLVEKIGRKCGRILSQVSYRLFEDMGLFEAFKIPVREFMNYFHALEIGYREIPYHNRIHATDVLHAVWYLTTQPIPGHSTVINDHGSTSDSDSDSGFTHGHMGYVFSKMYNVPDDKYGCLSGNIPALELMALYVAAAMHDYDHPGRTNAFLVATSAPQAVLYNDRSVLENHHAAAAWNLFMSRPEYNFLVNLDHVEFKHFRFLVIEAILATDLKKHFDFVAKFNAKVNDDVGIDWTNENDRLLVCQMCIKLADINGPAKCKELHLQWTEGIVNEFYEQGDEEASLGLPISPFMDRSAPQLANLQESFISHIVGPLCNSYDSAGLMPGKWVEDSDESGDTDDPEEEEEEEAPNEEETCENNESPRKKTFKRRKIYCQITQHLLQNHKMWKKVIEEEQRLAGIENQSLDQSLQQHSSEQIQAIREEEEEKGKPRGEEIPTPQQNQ
Description: as §2
(§3) The thus obtained PDE types V, III and I were measured for their activity in accordance with the method of Thompson et al. (Adv. Cyclic Nucleotide Res., 10, 69-72, 1979) and the method of Wells et al. (Biochim. Biophys. Acta, 384, 430-443, 1975). Specifically, a purified PDE sample was added to 50 mM Tris-HCl buffer solution (pH 7.5) containing 1 μM of substrate cGMP or cAMP (containing tritium-labelled cGMP or cAMP), 1 mM EGTA and 2 mM magnesium acetate. For PDE activity measurement, enzymatically produced 5' GMP or 5' AMP was further hydrolyzed into guanosine or adenosine with snake venom and separated from the substrate by means of an ion-exchange resin (Dowex 1-X2), followed by measuring with a scintillation counter. The activity of each test compound was determined as a percentage of the DPE activity measured when it was added as a dimethyl sulfoxide solution (DMSO) and its IC50 (50% inhibition concentration) was calculated by the probit method. The final concentration of DMSO was adjusted to be no more than 2% in consideration of the effect on PDE activity.

PDE type I = experiment: PDE Inhibiting Activity, type I; format: biochemical, dog (canine aorta); settings: PDE type I from canine aorta, 1 μM substrate, pH 7.5; read-out: Inhibition Activity IC50, Type I
Description: as §2, §3

[1] = test system: vascular smooth muscle cells isolated from aortic media; settings: Garg et al. 1989; Nakaki et al. 1990; cited from earlier work
[2] = test system: pulmonary arterial pressure; experiment: Pulmonary Arterial Pressure Lowering Action in anesthetized dogs; format: in vivo, adult mongrel dogs; settings: for inhibition in vivo at 0.3 mg/kg: 0.3 mg/kg intravenous, maximal percent decrease
Description: (§4) Adult mongrel dogs were anesthetized by intramuscular administration of 20 mg/kg of ketamine and intravenous administration of 20 mL/kg of physiological saline containing 5 mg/mL of α-chloralose; under artificial respiration, the aortic pressure was measured with a catheter inserted into the femoral artery and the pulmonary arterial pressure with a Swan-Ganz catheter inserted into the pulmonary artery. Anesthesia was maintained by intravenous administration of physiological saline containing 5 mg/mL of α-chloralose at a rate of 5 mL/kg per hour. Comparison was made between nitroglycerin, nifedipine and test compounds which were administered intravenously at doses of 0.01-1 mg/kg. Each test compound was dissolved in dimethylformamide (DMF) and sequentially diluted with polyethylene glycol 200 and water to give respective proportions of 20, 50 and 30% (v/v) and administrated by injection into the right femoral vein in a volume of 0.3 mL/kg. The results are shown in Table 2 below, in which maximal percent decreases in the pulmonary arterial pressure and aortic pressure are listed to show the effectiveness of each test compound in lowering the pulmonary arterial pressure and the systemic blood pressure, respectively.

systemic blood pressure = experiment: Systemic blood (aortic) pressure lowering in anesthetized dogs; format: in vivo, adult mongrel dogs; settings: Canis lupus familiaris, iv, read-out: Reduction in systemic blood pressure; for inhibition in vivo at 0.3 mg/kg: 0.3 mg/kg intravenous, anesthetized dogs, maximal percent decrease
Description: as §4

[3] = Canis lupus familiaris, iv, anesthetized dogs, read-out: Reduction in pulmonary arterial pressure

Row | Compound | IC50 (PDE type III) | IC50 (PDE type I) | inhibition in vivo at 0.3 mg/kg [2, 3] | inhibition in vivo at 0.3 mg/kg (systemic blood pressure) | further results
1 | O=c1c(Cc2cccnc2)cn2c3cc(Br)ccc3c3cc(OCCCO)cc1c32 [Example 278, 9-bromo-2-(3-hydroxyoropyloxy)-5-(3-pyridylmethyl)-4H-pyrido[3,2,1-jk]carbazole-4-one hydrochloride] | – | – | – | – | Coronary artery diameter (relative to nitroglycerin) (coronary artery diameter; 1 mg/kg intravenous): 1.50; Coronary blood flow (relative to nitroglycerin) (coronary blood flow; 1 mg/kg intravenous): 0.04
2 | O=C(COc1cc2c(=O)c(Cc3cccnc3)cn3c4ccc(Br)cc4c(c1)c23)OC1CCCCC1 [Example 15] | 15 µM | > 30 µM | – | – | IC50 (PDE type V): 0.045 µM
3 | O=c1ccn2c3ccc(Cl)cc3c3cc(Cl)cc1c32 [Example 264, 2,10-dichlor-4H-pyrido[3,2,1-jk]carbazole-4-one] | > 30 µM | > 30 µM | – | – | IC50 (PDE type V): 0.08 µM
4 | Nc1nc2c(nc(Br)n2[C@@H]2O[C@@H]3COP(=O)(O)O[C@H]3[C@H]2O)c(=O)[nH]1 [Example 8-bromo-cGMP, 8-bromo-cGMP] | – | – | – | – | proliferation of cultured vascular smooth muscle cells (in words) [1]: suppressed
5 | O=[N+]([O-])OCC(CO[N+](=O)[O-])O[N+](=O)[O-] [Nitroglycerin, nitroglycerin, reference compound] | – | – | – | – | inhibition in vivo at 0.01 mg/kg ([2]; Canis lupus familiaris, iv, read-out: Reduction in pulmonary arterial pressure): 19%; pulmonary arterial versus systemic blood pressure lowering (in words) ([2]; intravenous, anesthetized dogs): lowered the systemic blood pressure by greater degrees than the pulmonary arterial pressure; inhibition in vivo at 0.01 mg/kg (systemic blood pressure): 30%; proliferation of cultured vascular smooth muscle cells (in words) [1]: suppressed
6 | Cc1cn2c3ccc(Br)cc3c3cc(OCC(=O)OC(C)(C)C)cc(c1=O)c32 [Example 50, 10-bromo-2-t-butoxycarbonylmethyloxy-5-methyl-4H-pyrido [3,2,1-jk]carbazole-4-one] | > 30 µM | > 30 µM | 33% | 13% | –
7 | CCCOC(=O)COc1cc2c(=O)c(Cc3cccnc3)cn3c4ccc(Br)cc4c(c1)c23 [Example 7, 10-bromo-2-n-propoxycarbonylmethyloxy-5-(3-pyridylmethyl)-4H-pyrido [3,2,1-jk]carbazole-4-one] | > 30 µM | > 30 µM | – | – | IC50 (PDE type V): 0.0043 µM
8 | O=c1ccn2c3ccc(Cl)cc3c3cccc1c32 [Example 193, 10-chloro-4H-pyrido[3,2,1-jk]carbazole-4-one] | 6.9 µM | > 100 µM | 16% | 1% | Coronary artery diameter (relative to nitroglycerin) (coronary artery diameter; 1 mg/kg intravenous): 1.44; Coronary blood flow (relative to nitroglycerin) (coronary blood flow; 1 mg/kg intravenous): 1.40
9 | O=c1c(Cc2cccnc2)cn2c3cc(Br)ccc3c3cc(O)cc1c32 [Example 102, 9-bromo-2-hydroxy-5-(3-pyridylmethyl)-4H-pyrido [3,2,1-jk]carbazole-4-one] | 9.3 µM | > 30 µM | 24% | 19% | –
10 | CC(C)(C)OC(=O)COc1cc2c(=O)c(Cc3cccnc3)cn3c4ccc(Br)cc4c(c1)c23 [Example 3, 10-bromo-2-t-butoxycarbonylmethyloxy-5-(3-pyridylmethyl)-4H-pyrido [3,2,1-jk]carbazole-4-one] | > 30 µM | > 30 µM | 19% | 12% | –
11 | O=c1c(Cc2cccnc2)cn2c3ccccc3c3cc(O)cc1c32 [Example 155] | 7.3 µM | 48 µM | – | – | Coronary artery diameter (relative to nitroglycerin) (coronary artery diameter; 1 mg/kg intravenous): 1.47; Coronary blood flow (relative to nitroglycerin) (coronary blood flow; 1 mg/kg intravenous): 0.79
12 | OCCN(CCO)c1nc(N2CCCCC2)c2nc(N(CCO)CCO)nc(N3CCCCC3)c2n1 [Dipyridamole, dipyridamole, reference compound] | – | – | – | – | Coronary artery diameter (relative to nitroglycerin) (coronary artery diameter; 0.03 mg/kg intravenous): 0.17; coronary artery diameter versus coronary blood flow (in words) (coronary artery diameter; intravenous, anesthetized dogs): increased more of the coronary blood flow than the coronary artery diameter; Coronary blood flow (relative to nitroglycerin) (coronary blood flow; 0.03 mg/kg intravenous): 2.66
